Laboratory results published in patent US10282514B2, “Method of constructing a data architecture” (The Procter & Gamble Company, priority 2012, dated 2019).

Tests used:
hyperpigmented spots = assay: 9-week randomized, double-blind, vehicle-controlled, split-face tone benefit study; type: in vivo, human; details: 0.05% in SC-99 vehicle, compared to vehicle
Text: This Example provides evidence of the advantages of using composite signatures and illustrates clinical affirmation of the C-map model for predicting efficacy of skin-lightening agents. This Example supports embodiments related to composite signatures (as described at the end of Example 3). An illustrative “Skin Tone” Signature developed from a genomics study using a composite skin-lightening benchmark agent signature is derived from Niacinamide, Hexamidine, Sepiwhite, and NAG. The signature is used to query C-map and generate a list of potential skin-lightening agents. A top hit, Chlorhexidine Diactate (CD) is entered into clinical testing for confirmation of efficacy. The control for clinical efficacy is a 5% Niacinamide+1% Sepiwhite formulation in the control vehicle.
Primary endpoints are changes in color spot area fraction (image analysis) and melanin spot area fraction (NC2) from baseline. Secondary endpoints are changes from baseline in L*a*b (color image analysis), mean melanin gray scale (NC2), and melanin evenness (NC2). Texture area fraction and pore area fraction are also evaluated to explore impact on other aspects relating to overall skin tone. […] Statistically significant superiority to the high efficacy benchmark skin active agent to vehicle performance is the clinical success criteria.
Study Design: The experimental protocol included a 9-week (1-week preconditioning & 8-week treatment), randomized, double-blind, round robin, vehicle-controlled, split-face tone benefit study. The subject population included 330 Chinese females, 25-55 years old with hyperpigmented spots. 318 subjects completed the entire study. […] Olay Complete SPF 15 UV Moisturizing Lotion is concomitantly used during pre-conditioning and treatment. 0.5 g each test product per half-face (forehead to jaw line; ˜4 mg/cm^2) is dosed 2× a day (morning/evening). Color SAF and treatment area, Melanin SAF, gray scale, evenness by NC2, and additional measurement of Fine Lines and Wrinkle and Texture are by REAL 3.01A. Data collection points include baseline, and ends of weeks 4, 6 and 8. […]

[1] = test system: tert-Keratinocyte (tKC) cell line; assay: C-map query with the tone composite benchmark signature; type: cell-based, human; details: composite signature of Niacinamide, Sepiwhite, NAG, Hexamidine
Experimental: (§1) Individual experiments (referred to as batches) generally comprise 30 to 96 samples analyzed using Affymetrix GeneChip® technology platforms, containing 6 replicates of the vehicle control (e.g., DSMO), 2 replicate samples of a positive control that gives a strong reproducible effect in the cell type used, and samples of the test material/perturbagen. Replication of the test material is done in separate batches due to batch effects. In vitro testing was performed in 6-well plates to provide sufficient RNA for GeneChip® analysis (2-4 μg total RNA yield/well).
Human telomerized keratinocytes (tKC) were obtained from the University of Texas, Southwestern Medical Center, Dallas, Tex. tKC cells were grown in EpiLife® media with 1× Human Keratinocyte Growth Supplement (Invitrogen, Carlsbad, Calif.) on collagen I coated cell culture flasks and plates (Becton Dickinson, Franklin Lakes, N.J.). Keratinocytes were seeded into 6-well plates at 20,000 cells/cm^2 24 hours before chemical exposure. Human skin fibroblasts (BJ cell line from ATCC, Manassas, Va.) were grown in Eagle's Minimal Essential Medium (ATCC) supplemented with 10% fetal bovine serum (HyClone, Logan, Utah) in normal cell culture flasks and plates (Corning, Lowell, Mass.). BJ fibroblasts were seeded into 6-well plates at 12,000 cells/cm^2 24 hours before chemical exposure. […]

[2] = test system: teleomerized human keratinocytes (tKC); assay: C-map query with the Retinoic Acid/Keratinocyte 200 benchmark signature; type: cell-based; details: Retinoic Acid Keratinocyte RA_200 signature
Experimental: as §1
Human telomerized keratinocytes (tKC) were obtained from the University of Texas, Southwestern Medical Center, Dallas, Tex. tKC cells were grown in EpiLife® media with 1× Human Keratinocyte Growth Supplement (Invitrogen, Carlsbad, Calif.) on collagen I coated cell culture flasks and plates (Becton Dickinson, Franklin Lakes, N.J.). Keratinocytes were seeded into 6-well plates at 20,000 cells/cm^2 24 hours before chemical exposure. […]
(a) Tert-keratinocytes (tKC) RA Signatures. […] Cells were treated with 1 uM tRA for 6 hr, tested in triplicate, with triplicate DMSO controls, and analyzed on HG-U133A GeneChips. […]

SMILES | Basal skin tone (hyperpigmented spots; week 8) | NC2 Melanin evenness test (hyperpigmented spots; weeks 6 and 8) | spot area fraction color test (hyperpigmented spots; topical 2x a day, week 8) | connectivity to tone composite benchmark signature query [1] | average C-map score [2]
CC(=O)O.CC(=O)O.NC(=N\CCCCCC/N=C(N)/N=C(\N)Nc1ccc(Cl)cc1)/N=C(\N)Nc1ccc(Cl)cc1 [CD, Chlorhexidine Diacetate] | superiority | superiority to the vehicle | significantly fewer spots | top connectivity hit | 
CC1=C(/C=C/C(C)=C/C=C/C(C)=C/C(=O)O)C(C)(C)CCC1 [Retinoic acid, all-trans-retinoic acid] |  |  |  |  | highest score
